Assay results published in patent US20230295201A1 (Gilead Sciences, Inc., priority 2020, published 2023).
Like-named read-outs stand apart in the source and are kept apart here.

Key:
Format in all cases: cell-based
HRV99 = HRV99 EC50
HRV1a = assay: HRV1A HELA EC50 (cytopathic effect in H1-HeLa cells); conditions: 96 h, read-out: HRV1A HELA EC50
Experimental: (§1) H1-HeLa cells, cultured in complete RPMI 1640 medium containing 10% heat-inactivated FBS and 1% Penicillin/Streptomycin, were seeded in 96 well plates at 5000 cells/well one day prior to compound dosing and infection. The antiviral activity of each compound was measured in triplicate. Compounds were added directly to the cell cultures in serial 3-fold dilutions using the HP300 digital dispenser (Hewlett Packard, Palo Alto, CA) immediately prior to infection. The plates were transferred to BSL-2 containment and 100 μL of 1/4000 dilution of HRV1a virus stock was added to each well containing cells and serially diluted compounds. Each plate included 6 wells of infected untreated cells and 6 wells of cells containing 5 μM Rupintrivir that served as 0% and 100% virus inhibition control, respectively. Following the infection, test plates were incubated for 96 h in a tissue culture incubator set to 37° C./5% CO2. Following incubation, the H1-HeLa cells were removed from incubation and allowed to equilibrate to 25° C. Cell viability was determined by removing 100 μL of culture medium and adding 100 μL of Cell-Titer Glo viability reagent. The mixtures were incubated on a shaker for 10 minutes at 25° C., and the luminescence signal was quantified on an Envision luminescence plate reader.

HRV14 = HRV14 HELA EC50 (cytopathic effect in H1-HeLa cells); conditions: 96 h, read-out: HRV14 HELA EC50
Experimental: as §1, with “HRV14” for “HRV1a”

RSV A2 = assay: RSV NHBE EC50 (RSV A2 antiviral assay in normal human bronchial epithelial cells); conditions: NHBE cells, RSV A2, 4 days, read-out: RSV NHBE EC50
HRV16 = HRV16 HELA EC50 (cytopathic effect in H1-HeLa cells)
Outline: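 Read-out is luminescent cell viability (CellTiter-Glo) after 96 h of infection at 33 °C, scaled between uninfected and infected-untreated wells. Before infection with titrated virus, compounds went onto H1-HeLa cells as triplicate 3-fold dilution series.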

HRV10 = HRV10 HELA EC50
RSV strain A2 = assay: RSV HEp-2 EC50 (infectious cytopathic cell protection assay); conditions: HEp-2 cells, RSV A2, 4 days, read-out: RSV HEp-2 EC50
Outline: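 Percent inhibition of RSV-induced cytopathic effect came from remaining cell viability (CellTiter-Glo luminescence) after 4 days at 37° C. Compounds in 3-fold serial dilutions were exposed to an infectious mix of titered A2 virus and HEp-2 cells at 50,000/ml, with 0% and 100% inhibition control standards.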

[1] = tested on: Dengue serotype 2 New Guinea C (NGC) strain; assay: DENV-2 Huh-7 EC50 (qPCR in Huh7 cells)
Experimental: Huh7 (Human hepatocarcinoma 7) cells were maintained in 10% FCS-containing DMEM complete media. On the day of the assay, cells were trypsinized (0.1% Trypsin-EDTA), washed and infected for 2 hours in serum-free DMEM with Dengue serotype 2 New Guinea C (NGC) strain at MOI=0.1 with gentle agitation at 37° C. After 2 hours, cells were washed with serum-free media and suspended in 10% FCS-containing DMEM (Gibco, supplemented with sodium pyruvate, NEAA, Penicillin-Streptomycin). 10^5 cells were plated in triplicate in 96-well plates with compounds dispensed at graded doses (Hewlett-Packard D300 Digital Dispenser). All wells were normalized to 0.25% DMSO. At 48 hours, cells were washed with 1×PBS and all supernatants removed. Total RNA was extracted using RNEasy 96 plates (Qiagen) and used to generate first-strand cDNA using XLT cDNA 5×Supermix (QuantaBio). cDNA was used as a template in a Taqman qPCR duplex reaction specific to DENV2 viral and GAPDH gene expression. EC50 values were determined using Prism Graphpad software, with normalization to a positive control and no compound negative control wells.

RSV A strain A2 = assay: RSV HAE EC50 (intracellular RSV RNA by real-time PCR in HAE cells); conditions: read-out: RSV HAE EC50
Experimental: HAE cells are cultured at the air-liquid interface and have an apical side that is exposed to the air and a basal side that is in contact with the medium. Prior to experimentation, HAE were removed from their agar-based shipping packaging and were acclimated to 37° C./5% CO2 overnight in 1 ml of HAE Assay medium (AIR-100-MM, Mattek Corp). HAE were prepared for infection by washing the apical surface twice with 400 μL of PBS (either utilizing direct pipetting methods or by running each transwell through a trough containing PBS) to remove the mucus layer. Apical chambers were drained of PBS and tapped gently onto absorbent material to remove as much PBS as possible. After washing, the cells were transferred to fresh HAE maintenance media containing 4-fold serially diluted compound, delivered to the basal side of the cell monolayer, and apically infected with 100 μL of a 1:600 dilution of RSV A strain A2 1000× stock (ABI, Columbia, MD, cat #10-124-000) in HAE assay medium for 3 hours at 37° C. in 5% CO2. The virus inoculum was removed and the apical surface of the cells was washed 3 times with PBS using either method previously described. The cells were then cultured in the presence of compound for 3 days at 37° C. Following the incubation, total RNA was extracted from the HAE cells using a MagMAX-96 Viral RNA isolation kit (Applied Biosystems, Foster City, CA, Cat #AM1836) and intracellular RSV RNA was quantified by real-time PCR. Approximately 25 ng of purified RNA was added to a PCR reaction mixture that contained 0.9 μM RSV N Forward and RSV N Reverse primers, 0.2 μM RSV N Probe and 1×Taqman RNA-to-Ct 1-Step Kit (Applied Biosystems, Foster City, CA, Cat #4392938). RNA levels were normalized using a Tagman GAPDH control primer set (Applied Biosystems, Foster City, CA, Cat #402869). Real-Time PCR Primers and Probe Used in the RSV A2 HAE Antiviral Assay: […]

[2] = tested on: Dengue 2, New Guinea strain (NGC); assay: DENV-2 moDC EC50 (qPCR in human monocyte-derived dendritic cells); conditions: moDCs
Experimental: Human monocyte-derived dendritic cells (moDCs) were derived from CD14+ monocytes (AllCells) cultured in Human Mo-DC Differentiation medium containing GM-CSF and IL-4 (Miltenyi Biotec). On day 7, moDCs were harvested by mechanical disruption, washed and suspended in serum-free RPMI. moDCs were infected with Vero-derived Dengue 2, New Guinea strain (NGC) at a MOI=0.1 for two hours in serum-free RPMI with gentle agitation at 37° C. Cells were washed and resuspended in 10% serum-containing RPMI (Gibco, supplemented with sodium pyruvate, NEAA, Penicillin-Streptomycin). 10^5 cells were plated in triplicate in 96-well plates with compounds dispensed at graded doses (Hewlett-Packard D300 Digital Dispenser). All wells were normalized to 0.25% DMSO. At 48 hours, cells were washed with 1×PBS and all supernatants removed. Total RNA was extracted using RNEasy 96 plates (Qiagen) and used to generate first-strand cDNA using XLT cDNA 5× Supermix (QuantaBio). cDNA was used as a template in a Taqman qPCR duplex reaction specific to DENV2 viral and GAPDH gene expression. EC50 values were determined using Prism Graphpad software, with normalization to a positive control and no compound negative control wells.

DENV2 replicon = assay: DENV-2 Huh-7 Rep EC50 (replicon luminescence); conditions: read-out: DENV-2 Huh-7 Rep EC50
Outline: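 EC50 derived from luminescence dose-response, normalised to DMSO-only 0% inhibition wells, after 1.5 h with EnduRen substrate. Compounds were first exposed for 48 h at 37° C to DENV2 replicon Huh-7 cells (5,000/well).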

[3] = human respiratory syncytial virus, NHBE, 96 h
[4] = 96 h, H1-HeLa cells, 33° C., read-out: HRV16 HELA EC50
[5] = human respiratory syncytial virus, HEp-2, 96 h
[6] = Dengue virus, DENV2, Huh-7, 48 h
[7] = Dengue virus, DENV2, Dendritic cell, 48 h
[8] = human respiratory syncytial virus, 96 h
[9] = Dengue virus, DENV2, Huh-7, 48 h, Huh-7 replicon cells, 48 hours

C[C@H](NP(=O)(OC[C@@]1(C#N)O[C@@H](c2ccc3c(N)ncnn23)[C@H](O)[C@@H]1O)Oc1ccccc1)C(=O)OCC1CCC1 (mixture of isomers) [Example 2, (2S)-cyclobutylmethyl 2-(((((2R,3S,4R,5S)-5-(4-aminopyrrolo[2,1-f][1,2,4]triazin-7-yl)-2-cyano-3,4-dihydroxytetrahydrofuran-2-yl)methoxy)(phenoxy)phosphoryl)amino)propanoate]
EC50 (HRV99): 708 nM | EC50 (HRV1a): 106 nM | EC50 (HRV14): 340 nM | EC50 (RSV A2; [3]): 122 nM | EC50 (HRV16; [4]): 353 nM | EC50 (HRV10): 114 nM | EC50 (RSV strain A2; [5]): 56 nM

C[C@H](NP(=O)(OC[C@@]1(C#N)O[C@@H](c2ccc3c(N)ncnn23)[C@H](O)[C@@H]1O)Oc1ccccc1)C(=O)OC1CCCCCCC1 (single isomer, unassigned) [Example 173]
EC50 (RSV A2): 282 nM | EC50 [1, 6]: 1210 nM | EC50 (RSV A strain A2; human respiratory syncytial virus, HAE, 72 h): 22 nM | EC50 (RSV strain A2): 156 nM

CCC(C)(C)COC(=O)[C@H](C)NP(=O)(OC[C@@]1(C#N)O[C@@H](c2ccc3c(N)ncnn23)[C@H](O)[C@@H]1O)Oc1ccccc1 (single isomer, unassigned) [Example 255]
EC50 (RSV A2): 43 nM | EC50 [2, 7]: 86 nM | EC50 ([1]; 48 hours): 824 nM | EC50 (DENV2 replicon; Huh-7 replicon cells, 48 hours): 4940 nM | EC50 (RSV strain A2): 18 nM

CCC(C)(C)COC(=O)[C@H](C)NP(=O)(OC[C@@]1(C#N)O[C@@H](c2ccc3c(N)ncnn23)[C@H](O)[C@@H]1O)Oc1ccccc1 (single isomer, unassigned) [Example 256]
EC50 (RSV A2): 430 nM | EC50 ([2]; 48 hours): 103 nM | EC50 ([1]; 48 hours): > 18100 nM | EC50 (DENV2 replicon; Huh-7 replicon cells, 48 hours): > 100000 nM | EC50 (RSV strain A2): 54 nM

CCC(CC)COC(=O)[C@H](C)NP(=O)(N[C@@H](C)C(=O)OCC(CC)CC)OC[C@@]1(C#N)O[C@@H](c2ccc3c(N)ncnn23)[C@H](O)[C@@H]1O [Example 7]
EC50 (RSV A2; [8]): 265 nM | EC50 (HRV16; H1-HeLa cells, 96 h, 33° C.; read-out: HRV16 HELA EC50): 5940 nM | EC50 ([2]; Dengue virus, DENV2, Dendritic cell, 48 hours): > 25000 nM | EC50 (DENV2 replicon; [6]): 32900 nM | EC50 (RSV strain A2; [8]): 1860 nM

CCCCOC(=O)[C@H](C)N[P@](=O)(OC[C@@]1(C#N)O[C@@H](c2ccc3c(N)ncnn23)[C@H](O)[C@@H]1O)Oc1ccccc1 [Example 54, butyl ((S)-(((2R,3S,4R,5S)-5-(4-aminopyrrolo[2,1-f][1,2,4]triazin-7-yl)-2-cyano-3,4-dihydroxytetrahydrofuran-2-yl)methoxy)(phenoxy)phosphoryl)-L-alaninate]
EC50 (RSV A2; [3]): 105 nM | EC50 (HRV16; [4]): 378 nM | EC50 [2, 7]: 804 nM | EC50 [1, 6]: 2590 nM | EC50 (DENV2 replicon; [9]): 7400 nM

CC1CCC(OC(=O)C(C)NP(=O)(OCC2(C#N)OC(c3ccc4c(N)ncnn34)C(O)C2O)Oc2ccccc2)CC1 (stereo not drawn) [Example 143]
EC50 (RSV A2): 53 nM | EC50 (RSV A strain A2; HAE cells, RSV A2, 3 days): 157 nM | EC50 (RSV strain A2): 142 nM

CCCCCCCCCCCC(=O)Nc1ncnn2c([C@@H]3O[C@](C#N)(CO[P@@](=O)(N[C@@H](C)C(=O)OC4CCCCC4)Oc4ccccc4)[C@@H](O)[C@H]3O)ccc12 [Example 232, Cyclohexyl ((S)-(((2R,3S,4R,5S)-2-cyano-5-(4-dodecanamidopyrrolo[2,1-f][1,2,4]triazin-7-yl)-3,4-dihydroxytetrahydrofuran-2-yl)methoxy)(phenoxy)phosphoryl)-L-alaninate]
EC50 (RSV A2; [3]): 98 nM | EC50 (HRV16; [4]): 479 nM | EC50 [2, 7]: 1090 nM | EC50 (DENV2 replicon; [9]): 5320 nM | EC50 (RSV strain A2; [5]): 61 nM
